In this experiment the test system is immortalized knock-in murine astrocytes expressing human ApoE4. Kind of experiment: Production (stable isotope labeling kinetics, SILT) of human ApoE4 in immortalized knock-in murine astrocytes. To be noted: 50% 13C6-leucine in media, media collected over 48 hours, n=3; calculated from initial slope and plateau TTR. The experiment is classed as cell-based. The protocol:
FIG. 5 presents the production of human ApoE4 in immortalized knock-in murine astrocytes. ApoE4 expressing astrocytes were grown to confluency. ^13C6-Leucine was added to the media at time t=0 bringing the total percent ^13C6-leucine to 50%. Media was collected over 48 hours. ApoE was captured using liposorb, reduced and alkylated, and digested with trypsin. ApoE4 specific peptides were analyzed by nano-LC MS/MS. The SILT method was used to determine the incorporation of ^13C6-leucine into ApoE (n=3, error bars SEM). The fractional synthetic rate (FSR) of ApoE4 was calculated using initial slope and plateau tracer to tracee ratio (TTR) of 8.5% per hour. […]
ApoE was isolated either by overnight incubation with anti-ApoE antibody (WUE4) coupled to CNBr-activated Sepharose beads, or incubation for 30 min (4° C.) with PHM-Liposorb™ (Calbiochem, San Diego, Calif.). […] After desalting using Nu-tip carbon tips (Glygen Corp., Columbia, Md.), the supernatant containing ApoE peptides was analyzed by nano-LC tandem MS (Thermo-Finnigan LTQ equipped with a New Objective nanoflow ESI source) as previously described (Bateman et al., 2006, Nature Medicine, 12:856-861). The samples were quantitated using the stable-isotope tandem labeled (SILT) mass spectroscopy method as described by Bateman et al. 2007 J Am Soc Mass Spectrum 18(6):[…]. […]

Consider “ApoE4: Human apolipoprotein E isoform ApoE4 (arg112, arg158), endogenous protein whose metabolism is measured”, for which the “fractional synthetic rate (FSR) of ApoE4” value is recorded as 8.5 % per hour.

Source of the values: patent publication US20110294138A1, “METHODS FOR SIMULTANEOUSLY MEASURING THE IN VIVO METABOLISM OF TWO OR MORE ISOFORMS OF A BIOMOLECULE” (THE WASHINGTON UNIVERSITY, priority 2008, published 2011).
